The subject of data set [1] is Naegleria fowleri trophozoites (Carter NF69 strain, ATCC 30215). As to the kind of experiment: In vitro anti-N. fowleri activity, trophozoite viability. Type of data set: cell-based. The settings on record: for IC50: mean±SD of 3 independent experiments; for SI, sensitivity index (CC50 C6 glial cells / IC50 N. fowleri): ratio CC50 C6 glial cells / IC50 N. fowleri; for antiamoebic activity against N. fowleri (in words): in vitro.

Data set [2] concerns A. castellanii (ATCC-30868) trophozoites. Kind of data set: In vitro anti-Acanthamoeba activity, A. castellanii trophozoite viability. Type of data set: cell-based. To be noted: for IC50: mean±SD of 3 independent experiments; for SI, sensitivity index (CC50 C6 glial cells / IC50 A. castellanii): ratio CC50 C6 glial cells / IC50 A. castellanii; for antiamoebic activity against A. castellanii (in words): in vitro.

Data set [3] concerns A. polyphaga (ATCC-30461) trophozoites. Kind of data set: In vitro anti-Acanthamoeba activity, A. polyphaga trophozoite viability. Type of data set: cell-based. To be noted: for IC50: mean±SD of 3 independent experiments; for SI, sensitivity index (CC50 C6 glial cells / IC50 A. polyphaga): ratio CC50 C6 glial cells / IC50 A. polyphaga; for antiamoebic activity against A. polyphaga (in words): in vitro.

Data set [4] in a line: Cytotoxicity against C6 glial cells. The settings on record: rat, C6 glial cells. The data set is classed as cell-based, rat.
Setting [5] is: Naegleria fowleri, ATCC30215, 48 h, read-out: N. fowleri (IC50 ±SD, μM), trophozoites, 0–400 μM, 37°C, 48 h.
Setting [6] is: Acanthamoeba castellanii, ATCC30868, 48 h, read-out: A. castellanii (IC50 ±SD, μM), trophozoites, 0–400 μM, 25°C, 48 h.
[7] abbreviates: read-out: A. castellanii (IC50 ±SD), trophozoites, 0–400 μM, 25°C, 48 h.
The mark [8] stands for this setting: Acanthamoeba polyphaga, ATCC30461, 48 h, read-out: A. polyphaga (IC50 ±SD, μM), trophozoites, 0–400 μM, 25°C, 48 h.
The mark [9] stands for this setting: read-out: A. polyphaga (IC50 ±SD), trophozoites, 0–400 μM, 25°C, 48 h.
Setting [10] is: trophozoites, listed as berberine.
Setting [11] is: read-out: N. fowleri (IC50 ±SD), trophozoites, 0–400 μM, 37°C, 48 h.

The results in this text go back to publication PMC10693969 (Parasites, Hosts and Diseases, 2023).

Values joined by “and” are separate entries in the source; they are usually repeats but may differ in a detail not shown here. Identical values can stand only once. Like-named read-outs stand apart in the source and are kept apart here.

Turning to `Oc1cc(O)c2c(c1)O[C@H](c1ccc(O)c(O)c1)[C@H](O)C2` [(−)-Epicatechin, (−)-epicatechin], the IC50 in data set [1] (setting [5]) was 102.6 ± 0.97 µM; in data set [2] (setting [6]) it was below 50 µM; in data set [2] (setting [7]), 33.4 ± 0.68 µM; in data set [3] (setting [8]), below 50 µM; in data set [3] (setting [9]), 25.02 ± 0.14 µM. Further, the “SI, sensitivity index (CC50 C6 glial cells / IC50 N. fowleri)” value in data set [1] turned out to be 3.11. The “antiamoebic activity against N. fowleri (in words)” value in data set [1] (trophozoites) is “did not show significative anti-N. fowleri activities”. The “SI, sensitivity index (CC50 C6 glial cells / IC50 A. castellanii)” value in data set [2] is listed as 9.55; in data set [2] (listed as (−)-epicatechin), above 8. Also, the results for the “SI, sensitivity index (CC50 C6 glial cells / IC50 A. polyphaga)” value in data set [3] and in data set [3] (listed as (−)-epicatechin) were 12.73 and above 8, respectively. Further, in data set [4], the CC50 was 318.6 ± 0.82 µM.

Take `C=C1CC/C=C(\C)CC[C@@H]2[C@@H]1CC2(C)C` [(−)-trans-Caryophyllene, (−)-trans-caryophyllene]: the figures for the half-maximal inhibitory concentration (IC50) in data set [1] (setting [5]), in data set [2] (setting [6]) and in data set [3] (setting [8]) were 84.78 ± 0.65 µM, 65.1 ± 1.42 µM and 44.8 ± 1.41 µM, respectively. Moreover, the “SI, sensitivity index (CC50 C6 glial cells / IC50 N. fowleri)” value in data set [1] is recorded as 2.60. For the same molecule, in data set [2], the “SI, sensitivity index (CC50 C6 glial cells / IC50 A. castellanii)” value came to 3.39. For the same molecule, the “SI, sensitivity index (CC50 C6 glial cells / IC50 A. polyphaga)” value in data set [3] is listed as 4.92. Moreover, the half-maximal cytotoxic concentration (CC50) in data set [4] was 220 ± 2.42 µM.

As for `C[C@@H]1O[C@@H](Oc2c(-c3ccc(O)cc3)oc3cc(O)cc(O)c3c2=O)[C@H](O)[C@H](O)[C@H]1O` [Afzelin, afzelin], the half-maximal inhibitory concentration (IC50) in data set [1] (setting [5]), in data set [2] (setting [6]) and in data set [3] (setting [8]) was above 230 µM in each case. Besides, the “antiamoebic activity against A. castellanii (in words)” value in data set [2] (trophozoites) is listed as “did not exhibit potential or selective antiamoebic activity”. Also, in data set [3] (trophozoites), the “antiamoebic activity against A. polyphaga (in words)” value is given as “did not exhibit potential or selective antiamoebic activity”. This molecule also showed a CC50 in data set [4] above 230 µM.

As to `CC[C@H]1OC(=O)[C@H](C)[C@@H](O[C@H]2C[C@@](C)(OC)[C@@H](O)[C@H](C)O2)[C@H](C)[C@@H](O[C@@H]2O[C@H](C)C[C@H](N(C)C)[C@H]2O)[C@](C)(O)C[C@@H](C)CN(C)[C@H](C)[C@@H](O)[C@]1(C)O` [Azithromycin, Azithromycin dihydrate, reference compound], the half-maximal inhibitory concentration (IC50) worked out at 14.7 ± 1.65 µM in data set [1] (setting [5]), 12.1 ± 0.2 µM in data set [2] (setting [6]) and 4.12 ± 0.11 µM in data set [3] (setting [8]). Also, the “SI, sensitivity index (CC50 C6 glial cells / IC50 N. fowleri)” value in data set [1] amounted to 5.88. In data set [2], the “SI, sensitivity index (CC50 C6 glial cells / IC50 A. castellanii)” value is recorded as 7.12. The “SI, sensitivity index (CC50 C6 glial cells / IC50 A. polyphaga)” value in data set [3] was 20.93. This molecule came in with a CC50 in data set [4] of 86.2 ± 0.93 µM.

As to `COc1ccc2cc3[n+](cc2c1OC)CCc1cc2c(cc1-3)OCO2` [Berberine, berberine], the IC50 in data set [1] (setting [5]), in data set [2] (setting [6]) and in data set [3] (setting [8]) was above 260 µM throughout. For the same molecule, the “antiamoebic activity against N. fowleri (in words)” value in data set [1] (trophozoites) was “did not affect”. The figures for the “antiamoebic activity against A. castellanii (in words)” value in data set [2] (trophozoites) and in data set [2] (setting [10]) were “did not affect” and “did not exhibit potential or selective antiamoebic activity”, respectively. Also, the “antiamoebic activity against A. polyphaga (in words)” value is reported as “did not affect” in data set [3] (trophozoites) and “did not exhibit potential or selective antiamoebic activity” in data set [3] (setting [10]). The molecule further gave a 50% cytotoxic concentration (CC50) in data set [4] of 159.7 ± 1.23 µM.

For the molecule `C=C1C(=O)O[C@@H]2/C=C(\C)CC/C=C(\C)CC[C@@H]12` [Costunolide, costunolide], the IC50 is 65.56 ± 0.58 µM in data set [1] (setting [5]); below 50 µM in data set [2] (setting [6]); 32 ± 1.14 µM in data set [2] (setting [7]); below 50 µM in data set [3] (setting [8]); 35.1 ± 0.74 µM in data set [3] (setting [9]). Further, the “SI, sensitivity index (CC50 C6 glial cells / IC50 N. fowleri)” value in data set [1] was determined as 2.92. Moreover, the “SI, sensitivity index (CC50 C6 glial cells / IC50 A. castellanii)” value in data set [2] was determined as 5.97. For the same molecule, the “SI, sensitivity index (CC50 C6 glial cells / IC50 A. polyphaga)” value in data set [3] was determined as 5.44. This molecule also registered a CC50 in data set [4] of 191.2 ± 1.18 µM.

Take `O=c1c(-c2ccc(O)cc2)coc2cc(O)cc(O)c12` [Genistein, genistein]: the IC50 in data set [1] (setting [5]) is 157.4 ± 0.57 µM; in data set [2] (setting [6]), above 370 µM; in data set [3] (setting [8]), above 370 µM. In addition, the “SI, sensitivity index (CC50 C6 glial cells / IC50 N. fowleri)” value in data set [1] is reported as 0.66. Further, the “antiamoebic activity against A. castellanii (in words)” value in data set [2] (trophozoites) is “did not exhibit potential or selective antiamoebic activity”. Also, the “antiamoebic activity against A. polyphaga (in words)” value in data set [3] (trophozoites) is recorded as “did not exhibit potential or selective antiamoebic activity”. The same molecule yielded a 50% cytotoxic concentration (CC50) in data set [4] of 104 ± 1.08 µM.

`O=c1c(O)c(-c2ccc(O)cc2)oc2cc(O)cc(O)c12` [Kaempferol, kaempferol]: the IC50 in data set [1] (setting [5]) is below 30 µM; in data set [1] (setting [11]), 27.8 ± 0.33 µM; in data set [1] (read-out: N. fowleri (IC50 ±SD), trophozoites, 0–400 μM, 37°C, 48 h, listed as kaempferol) it was below 40 µM; in data set [2] (setting [7]), 21.6 ± 1.28 µM; in data set [2] (read-out: A. castellanii (IC50 ±SD), trophozoites, 0–400 μM, 25°C, 48 h, listed as kaempferol) it was below 40 µM; in data set [3] (setting [8]), below 50 µM. Also, the IC50 in data set [3] (setting [9]) was 28.6 ± 1.17 µM; in data set [3] (read-out: A. polyphaga (IC50 ±SD), trophozoites, 0–400 μM, 25°C, 48 h, listed as kaempferol), below 40 µM. The “SI, sensitivity index (CC50 C6 glial cells / IC50 N. fowleri)” value in data set [1] is 12.00; in data set [1] (listed as kaempferol) it was > 7 and > 8. The results for the “SI, sensitivity index (CC50 C6 glial cells / IC50 A. castellanii)” value in data set [2] and in data set [2] (listed as kaempferol) were 15.43 and above 8, respectively. The figures for the “SI, sensitivity index (CC50 C6 glial cells / IC50 A. polyphaga)” value in data set [3] and in data set [3] (listed as kaempferol) were 11.67 and above 8, respectively. For the same molecule, the cytotoxic concentration (CC50) in data set [4] was determined as 333.8 ± 0.99 µM.

Take `O=c1cc(-c2ccc(O)c(O)c2)oc2cc(O)cc(O)c12` [Luteolin, luteolin]: the IC50 was below 30 µM in data set [1] (setting [5]), 27.4 ± 0.61 µM in data set [1] (setting [11]), above 350 µM in data set [2] (setting [6]) and 40.2 ± 0.47 µM in data set [3] (setting [8]). Besides, in data set [2] (trophozoites), the “antiamoebic activity against A. castellanii (in words)” value is “not effective”. In data set [3] (trophozoites), the “antiamoebic activity against A. polyphaga (in words)” value is “effective”. Also, the CC50 in data set [4] is above 350 µM.

For `CCCCCCCCCCCCCCCCOP(=O)([O-])OCC[N+](C)(C)C` [Miltefosine, miltefosine, reference compound], the IC50 in data set [1] (setting [5]) worked out at 153.3 ± 1.3 µM; in data set [2] (setting [6]), 213.2 ± 1.22 µM; in data set [3] (setting [8]), 227.5 ± 0.36 µM. Further, the “SI, sensitivity index (CC50 C6 glial cells / IC50 N. fowleri)” value in data set [1] is above 1.60. Besides, the “SI, sensitivity index (CC50 C6 glial cells / IC50 A. castellanii)” value in data set [2] is recorded as above 1.15. The “SI, sensitivity index (CC50 C6 glial cells / IC50 A. polyphaga)” value in data set [3] is above 1.08. The same molecule had a CC50 in data set [4] above 245 µM.

For the molecule `O=c1c(O)c(-c2ccc(O)c(O)c2)oc2cc(O)cc(O)c12` [Quercetin, quercetin], the concentration for half-maximal inhibition (IC50) in data set [1] (setting [5]) is above 330 µM; in data set [2] (setting [6]) it was above 330 µM; in data set [3] (setting [8]), 320.8 ± 0.33 µM. Moreover, the “antiamoebic activity against A. castellanii (in words)” value in data set [2] (trophozoites) was “did not exhibit potential or selective antiamoebic activity”. Also, in data set [3], the “SI, sensitivity index (CC50 C6 glial cells / IC50 A. polyphaga)” value is on record as above 1.03. In addition, the “antiamoebic activity against A. polyphaga (in words)” value in data set [3] (trophozoites) is “did not exhibit potential or selective antiamoebic activity”. The same molecule returned a CC50 in data set [4] above 330 µM.

In the case of `O=C(/C=C/c1ccc(O)c(O)c1)O[C@H](Cc1ccc(O)c(O)c1)C(=O)O` [Rosmarinic acid, rosmarinic acid], the IC50 is 77.7 ± 0.97 µM in data set [1] (setting [5]); below 50 µM in data set [2] (setting [6]); 31.66 ± 0.31 µM in data set [2] (setting [7]); 22.4 ± 0.78 µM in data set [3] (setting [9]); below 50 µM in data set [3] (read-out: A. polyphaga (IC50 ±SD), trophozoites, 0–400 μM, 25°C, 48 h, listed as rosmarinic acid). The “SI, sensitivity index (CC50 C6 glial cells / IC50 N. fowleri)” value in data set [1] was above 3.57. For the same molecule, the “antiamoebic activity against N. fowleri (in words)” value in data set [1] (trophozoites) was “did not show significative anti-N. fowleri activities”. The “SI, sensitivity index (CC50 C6 glial cells / IC50 A. castellanii)” value in data set [2] was above 8.77; in data set [2] (listed as rosmarinic acid) it was above 8. Also, the “SI, sensitivity index (CC50 C6 glial cells / IC50 A. polyphaga)” value in data set [3] is above 12.38; in data set [3] (listed as rosmarinic acid), above 8. In data set [4], this molecule yielded a CC50 above 278 µM.

A word on the IC50: it is the concentration that gives 50% inhibition. As a reminder, the CC50 is the concentration that lowers cell viability or growth by half.
